# Measurements: patent publication US20240174634A1, “Aldehyde Dehydrogenase Inhibitors and Their Therapeutic Use” (priority 2020, published 2024)
# Target: T1, ALDH1A3 (Homo sapiens, UniProt P47895)
# T1 sequence (P47895 1-512): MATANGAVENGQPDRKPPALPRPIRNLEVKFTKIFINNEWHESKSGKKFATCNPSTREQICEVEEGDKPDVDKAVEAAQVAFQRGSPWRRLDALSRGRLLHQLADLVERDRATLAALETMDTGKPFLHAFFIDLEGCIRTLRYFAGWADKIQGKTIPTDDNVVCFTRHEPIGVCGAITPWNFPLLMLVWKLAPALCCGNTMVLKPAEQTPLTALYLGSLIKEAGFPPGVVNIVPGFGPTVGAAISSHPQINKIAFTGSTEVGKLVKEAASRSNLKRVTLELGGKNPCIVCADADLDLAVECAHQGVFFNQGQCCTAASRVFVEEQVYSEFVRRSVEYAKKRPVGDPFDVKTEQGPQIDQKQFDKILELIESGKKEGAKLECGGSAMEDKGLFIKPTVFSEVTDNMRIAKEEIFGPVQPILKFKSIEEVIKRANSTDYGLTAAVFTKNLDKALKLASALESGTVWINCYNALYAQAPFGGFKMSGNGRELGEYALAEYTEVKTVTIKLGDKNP
# Assay: ALDH1A3 cellular assay (ALDEFLUOR) in WM266.4 melanoma cells
# Type: cell-based
# Settings: WM266.4 cells; 60 min incubation; percentage of ALDH-positive cells
# Text: Materials: WM266.4 cells were procured from ATCC. (WM266-4 is a metastatic human melanoma cell line.) The ALDEFLUOR™ Assay kit (cat. no. 01700) and Aldefluor buffer (cat. no. 01702) were procured from StemCell Technologies. Dulbecco's Modified Eagle Medium (DMEM), FluoroBrite DMEM, Glutamax and Hoechst 33342 were purchased from ThermoFisher. Verapamil was obtained from Fluorochem. FBS was obtained from Sigma. Echo Qualified 384-well low-dead-volume microplate and Echo Qualified 384-well polypropylene microplate were purchased from Labcyte, and the Microclear black sterile polystyrene microplate from Greiner Bio-One.
# Method: Intracellular inhibition of ALDH1A3 was assessed using the ALDEFLUOR™ Assay kit. The activated ALDEFLUOR™ reagent, BODIPY-aminoacetaldehyde (BAAA), is a fluorescent non-toxic substrate for ALDH enzymes, which freely diffuses into intact and viable cells. In the presence of ALDH enzyme activity, BAAA is converted into BODIPY-aminoacetate (BAA), which is retained inside the cells. The amount of fluorescent reaction product is proportional to the ALDH activity in the cells and is measured using an imaging cytometer. Active efflux of the reaction product is inhibited by an efflux inhibitor (Verapamil) in the ALDEFLUOR™ Assay Buffer.
# A frozen vial of cells was recovered into a T225 flask containing DMEM, high glucose, 10% FBS, 1% glutamax, 1% HEPES. The following day, media was changed and cells were ready for assay from 72 hours after recovery. Cells were transferred into FluoroBrite DMEM (plus 10% FBS, 1% glutamax and 1% HEPES) and diluted to 2.5×10^5 cells/mL. 30 μL of cells were added to each well to give 7500 cells/well and then incubated overnight at 37° C., 5% CO2. After overnight incubation, the media was aspirated and replaced by 20 μL substrate/Hoechst buffer solution. Each plate requires 9 mL of solution comprising, 9 mL ALDEFLUOR assay buffer, 18 μL BAAA substrate (final concentration 500 nM), 4.5 μL Hoechst 33342 (final concentration 5 μg/mL) and 4.5 μL Verapamil (final concentration 50 μM). Compounds were prepared for dosing using the Echo acoustic dispenser by aliquoting into a source plate and dosed directly onto the cell assay plate to give a 10 point dose response per compound ranging from 10 μM to 0.0005 μM final concentration in 3-fold dilution steps. Plates were then incubated for 60 minutes at 37° C., 5% CO2. The buffer was then aspirated and cells washed twice in ice-cold PBS. Plates were kept on ice and 30 μL of cold Aldefluor buffer with 50 μM verapamil dispensed per well. The plates were then imaged using the CellInsight fluorescent microscope. Hoechst fluorescence in the 405 nm channel indicated the nuclear area and this was used to define nuclei and then the surrounding cellular area. Fluorescence in the 488 nm channel of the defined cellular area indicates ALDH1A3 activity. The percentage of cells positive for ALDH activity was plotted versus compound concentration to generate EC50 values using curve fitting parameters defined in Dotmatics software.
row,Compound,IC50 [nM]
1,"O=C1CCc2cc(OCCN3CC(O)CC3c3cccc(F)c3)ccc2N1 (mixture of isomers) [ALDHI-2035, 6-[2-[2-(3-fluorophenyl)-4-hydroxy-pyrrolidin-1-yl]ethoxy]-3,4-dihydro-1H-quinolin-2-one]",< 100
2,"CC1CN(CCOc2ccc3c(c2)CCC(=O)N3)C(c2ccccc2)CO1 (mixture of isomers) [ALDHI-2042, 6-[2-(2-methyl-5-phenyl-morpholin-4-yl)ethoxy]-3,4-dihydro-1H-quinolin-2-one]",100 to 1000
3,"O=C1CCc2cc(NC(=O)c3sc(N4CCOCC4)nc3-c3cccc(F)c3)ccc2N1 [ALDHI-1001, 4-(3-fluorophenyl)-2-morpholino-N-(2-oxo-3,4-dihydro-1H-quinolin-6-yl)thiazole-5-carboxamide]",< 100
4,"CN(C)c1nc(-c2cccc(F)c2)c(C(=O)Nc2ccc3c(c2)CCC(=O)N3)s1 [ALDHI-1002, 2-(dimethylamino)-4-(3-fluorophenyl)-N-(2-oxo-3,4-dihydro-1H-quinolin-6-yl)thiazole-5-carboxamide]",< 100
5,"O=C1CCc2cc(NC(=O)c3scnc3-c3cccc(F)c3)ccc2N1 [ALDHI-1003, 4-(3-fluorophenyl)-N-(2-oxo-3,4-dihydro-1H-quinolin-6-yl)thiazole-5-carboxamide]",< 100
6,"O=C1CCc2cc(NC(=O)c3sc(N4CC(O)C4)nc3-c3cccc(F)c3)ccc2N1 [ALDHI-1004, 4-(3-fluorophenyl)-2-(3-hydroxyazetidin-1-yl)-N-(2-oxo-3,4-dihydro-1H-quinolin-6-yl)thiazole-5-carboxamide]",< 100
7,"O=C1CCc2cc(NC(=O)c3sc(N4CCNCC4)nc3-c3cccc(F)c3)ccc2N1 [ALDHI-1005, 4-(3-fluorophenyl)-N-(2-oxo-3,4-dihydro-1H-quinolin-6-yl)-2-piperazin-1-yl-thiazole-5-carboxamide]",< 100
8,"Cc1noc(-c2ccccc2C(=O)Nc2ccc3c(c2)CCC(=O)N3)n1 [ALDHI-1008, 2-(3-methyl-1,2,4-oxadiazol-5-yl)-N-(2-oxo-1,2,3,4-tetrahydroquinolin-6-yl)benzamide]",100 to 1000
9,"O=C1CCc2cc(NC(=O)c3ncsc3-c3ccsc3)ccc2N1 [ALDHI-1011, N-(2-oxo-3,4-dihydro-1H-quinolin-6-yl)-5-(3-thienyl)thiazole-4-carboxamide]",1000 to 10000
10,"O=C1CCc2cc(NC(=O)c3ncsc3-c3cccc(F)c3)ccc2N1 [ALDHI-1014, 5-(3-fluorophenyl)-N-(2-oxo-3,4-dihydro-1H-quinolin-6-yl)thiazole-4-carboxamide]",1000 to 10000
11,"O=C1COc2cc(NC(=O)c3scnc3-c3cccc(F)c3)ccc2N1 [ALDHI-1016, 4-(3-fluorophenyl)-N-(3-oxo-4H-1,4-benzoxazin-7-yl)thiazole-5-carboxamide]",< 100
12,"O=C1CCc2cc(NC(=O)c3scnc3-c3ccc(F)cc3)ccc2N1 [ALDHI-1017, 4-(4-fluorophenyl)-N-(2-oxo-1,2,3,4-tetrahydroquinolin-6-yl)thiazole-5-carboxamide]",100 to 1000
13,"O=C1CCc2cc(NC(=O)c3cncnc3-c3cccc(F)c3)ccc2N1 [ALDHI-1018, 4-(3-fluorophenyl)-N-(2-oxo-3,4-dihydro-1H-quinolin-6-yl)pyrimidine-5-carboxamide]",100 to 1000
14,"O=C1CCc2cc(NC(=O)c3ocnc3-c3cccc(F)c3)ccc2N1 [ALDHI-1019, 4-(3-fluorophenyl)-N-(2-oxo-3,4-dihydro-1H-quinolin-6-yl)oxazole-5-carboxamide]",1000 to 10000
15,"O=C1CCc2cc(NC(=O)c3scnc3-c3ccccc3F)ccc2N1 [ALDHI-1021, 4-(2-fluorophenyl)-N-(2-oxo-3,4-dihydro-1H-quinolin-6-yl)thiazole-5-carboxamide]",< 100
16,"O=C1CCc2cc(NC(=O)c3scnc3-c3cccs3)ccc2N1 [ALDHI-1023, N-(2-oxo-3,4-dihydro-1H-quinolin-6-yl)-4-(2-thienyl)thiazole-5-carboxamide]",< 100

row,Compound,IC50 [nM]
1,"O=C1CCc2cc(OCCN3CCCC3c3cccc(F)c3)ccc2N1 (centres unmarked) [ALDHI-2001, 6-[2-[2-(3-fluorophenyl)pyrrolidin-1-yl]ethoxy]-3,4-dihydro-1H-quinolin-2-one]",< 100
2,"O=C1CCc2cc(OCCN3CCCC3c3ccccc3F)ccc2N1 (centres unmarked) [ALDHI-2002, 6-[2-[2-(2-fluorophenyl)pyrrolidin-1-yl]ethoxy]-3,4-dihydro-1H-quinolin-2-one]",1000 to 10000
3,"O=C1CCc2cc(OCCN3CCCC3c3ccc(F)cc3)ccc2N1 (centres unmarked) [ALDHI-2003, 6-[2-[2-(4-fluorophenyl)pyrrolidin-1-yl]ethoxy]-3,4-dihydro-1H-quinolin-2-one]",1000 to 10000
4,"O=C1CCc2cc(OCCN3CCCC3c3ccncc3)ccc2N1 (centres unmarked) [ALDHI-2004, 6-[2-[2-(4-pyridyl)pyrrolidin-1-yl]ethoxy]-3,4-dihydro-1H-quinolin-2-one]",1000 to 10000
5,"O=C1CCc2cc(OCCN3CCCC3c3cccnc3)ccc2N1 (centres unmarked) [ALDHI-2005, 6-[2-[2-(3-pyridyl)pyrrolidin-1-yl]ethoxy]-3,4-dihydro-1H-quinolin-2-one]",100 to 1000
6,"O=C1CCc2cc(OCCN3CCCC3c3ccccn3)ccc2N1 (centres unmarked) [ALDHI-2006, 6-[2-[2-(2-pyridyl)pyrrolidin-1-yl]ethoxy]-3,4-dihydro-1H-quinolin-2-one]",1000 to 10000
7,"O=C1CCc2cc(OCCN3CCC[C@@H]3c3cccc(F)c3)ccc2N1 [ALDHI-2007, 6-[2-[(2R)-2-(3-fluorophenyl)pyrrolidin-1-yl]ethoxy]-3,4-dihydro-1H-quinolin-2-one]",< 100
8,"O=C1CSc2cc(OCCN3CCCC3c3cccc(F)c3)ccc2N1 (centres unmarked) [ALDHI-2008, 7-[2-[2-(3-fluorophenyl)pyrrolidin-1-yl]ethoxy]-4H-1,4-benzothiazin-3-one]",< 100
9,"O=C1COc2cc(OCCN3CCCC3c3cccc(F)c3)ccc2N1 (centres unmarked) [ALDHI-2009, 7-[2-[2-(3-fluorophenyl)pyrrolidin-1-yl]ethoxy]-4H-1,4-benzoxazin-3-one]",100 to 1000
10,"Cc1ccc(C2CCCN2CCOc2ccc3c(c2)CCC(=O)N3)cc1 (centres unmarked) [ALDHI-2010, 6-[2-[2-(p-tolyl)pyrrolidin-1-yl]ethoxy]-3,4-dihydro-1H-quinolin-2-one]",100 to 1000
11,"Cc1cccc(C2CCCN2CCOc2ccc3c(c2)CCC(=O)N3)c1 (centres unmarked) [ALDHI-2011, 6-[2-[2-(m-tolyl)pyrrolidin-1-yl]ethoxy]-3,4-dihydro-1H-quinolin-2-one]",1000 to 10000
12,"Cc1ccccc1C1CCCN1CCOc1ccc2c(c1)CCC(=O)N2 (centres unmarked) [ALDHI-2012, 6-[2-[2-(o-tolyl)pyrrolidin-1-yl]ethoxy]-3,4-dihydro-1H-quinolin-2-one]",1000 to 10000
13,"O=C1CCc2cc(OCCN3CCCC3c3cccs3)ccc2N1 (centres unmarked) [ALDHI-2013, 6-[2-[2-(2-thienyl)pyrrolidin-1-yl]ethoxy]-3,4-dihydro-1H-quinolin-2-one]",100 to 1000
14,"O=C1CCc2cc(OCCN3CCCC3c3ccsc3)ccc2N1 (centres unmarked) [ALDHI-2014, 6-[2-[2-(3-thienyl)pyrrolidin-1-yl]ethoxy]-3,4-dihydro-1H-quinolin-2-one]",100 to 1000
15,"CCn1cc(C2CCCN2CCOc2ccc3c(c2)CCC(=O)N3)cn1 (centres unmarked) [ALDHI-2016, 6-[2-[2-(1-ethylpyrazol-4-yl)pyrrolidin-1-yl]ethoxy]-3,4-dihydro-1H-quinolin-2-one]",1000 to 10000
16,"O=C1CCc2cc(OCCN3CCC[C@H]3c3cccc(F)c3)ccc2N1 [ALDHI-2018, 6-[2-[(2S)-2-(3-fluorophenyl)pyrrolidin-1-yl]ethoxy]-3,4-dihydro-1H-quinolin-2-one]",< 100
